Measured values as given in PMC2826142 (Journal of medicinal chemistry, 2010).
pKi: −log10 of the molar value. “Also recorded” adds a separate entry of the source.

Assays:
[1] = test system: forskolin stimulated cAMP generation; test: Forskolin stimulated cAMP generation; type: cell-based; conditions: data not shown
[2] = target: T1, human adenosine A2A receptor (Homo sapiens, UniProt P29274); test: Radioligand displacement at A2AAR-HEK membranes; type: binding; conditions: for Max Displacement at A2AAR-HEK membranes: 10 µM of test compound; for A2A / A1 selectivity: mammalian membranes, A2AAR over A1AR
[3] = target: T1, human adenosine A2A receptor; test: Functional cAMP accumulation assay; type: cell-based; conditions: 10 µM compound, 10 nM or 10 µM 3a
[4] = target: T2, human adenosine A1 receptor (Homo sapiens, UniProt P30542); test: Radioligand; type: binding; conditions: for inhibition at 10 µM: read-out: Max Displacement A1AR-CHO membranes
T2 sequence (P30542 1-326): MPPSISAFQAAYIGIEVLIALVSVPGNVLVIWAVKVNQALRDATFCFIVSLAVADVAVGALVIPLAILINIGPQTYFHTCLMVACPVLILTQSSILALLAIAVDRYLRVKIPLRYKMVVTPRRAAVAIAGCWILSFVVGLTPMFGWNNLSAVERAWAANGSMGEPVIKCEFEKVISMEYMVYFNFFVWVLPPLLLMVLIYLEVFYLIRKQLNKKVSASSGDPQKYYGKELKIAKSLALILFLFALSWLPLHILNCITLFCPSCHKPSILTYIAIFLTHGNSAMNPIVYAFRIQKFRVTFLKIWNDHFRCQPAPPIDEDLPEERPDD

[5] = target: human A2AAR receptor (Homo sapiens, UniProt P29274); test: Competition binding with tritiated compound 1; conditions: for LE (experimental ligand efficiency): ligand binding energy per heavy atom, from Sf9 Ki
[6] = Visible sedimentation in binding assay; conditions: binding assay buffer

T1 sequence (P29274 whole entry): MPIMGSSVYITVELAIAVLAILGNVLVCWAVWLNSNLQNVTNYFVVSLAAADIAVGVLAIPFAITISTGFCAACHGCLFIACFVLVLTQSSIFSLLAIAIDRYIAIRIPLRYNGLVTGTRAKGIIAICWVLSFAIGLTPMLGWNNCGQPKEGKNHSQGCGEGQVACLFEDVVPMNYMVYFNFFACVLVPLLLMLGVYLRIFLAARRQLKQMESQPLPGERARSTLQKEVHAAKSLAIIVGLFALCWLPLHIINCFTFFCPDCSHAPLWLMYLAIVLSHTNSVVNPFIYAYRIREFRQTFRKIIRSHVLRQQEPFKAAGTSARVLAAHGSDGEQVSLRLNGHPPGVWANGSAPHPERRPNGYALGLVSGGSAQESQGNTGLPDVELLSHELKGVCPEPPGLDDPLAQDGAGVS
human A2AAR receptor, sequence (P29274 whole entry): as above

Row | pKi [2] | Max Displacement at A2AAR-HEK membranes [2] | A2A / A1 selectivity [2] | pKi [4] | inhibition at 10 µM [4] | A2AAR affinity (in words) ([5]; Sf9 membranes) | SMILES | also measured
1 | 7.22 | 48% | 1.42 fold | 7.05 | 32% | – | Nc1c(C(=O)Nc2ccccc2F)sc2nc3c(cc12)C(=O)CCC3 [compound 6] | effect on forskolin stimulated cAMP generation [1]: inhibited; A2AAR antagonist functional activity (in words) [3]: the effect does not depend on agonist concentration
2 | 6.03 | – | – | 6.72 | 100% | sub-µM affinity | Nc1ccc(Cl)c2c1C(=O)c1ccccc1C2=O [compound 49] | –
3 | 6.96 | 100% | 2.51 fold | 6.55 | 100% | sub-µM affinity | Nc1ccc(N)c2c1C(=O)c1ccccc1C2=O [compound 29] | –
4 | – | – | – | – | – | low-µM affinity | Nc1c(Oc2ccccc2)ccc2c1C(=O)c1ccccc1C2=O [compound 20] | –
5 | 6.14 | 73% | >10. fold | < 5.00 | – | – | NC1=C(Nc2cccc(C(F)(F)F)c2)C(=O)c2ccccc2C1=O [compound 17] | LE (experimental ligand efficiency) [5]: ~ 0.4 kcal/mol per heavy atom; A2AAR antagonist functional activity (in words) [3]: significant activity
6 | 6.82 | 50% | – | 5.76 | 27% | – | Cc1cccc(NC2=C(N)C(=O)c3ccccc3C2=O)c1 [compound 50] | LE (experimental ligand efficiency) [5]: ~ 0.4 kcal/mol per heavy atom; A2AAR antagonist functional activity (in words) [3]: significant activity
7 | 5.94 | 53% | 0.05 fold | 7.22 | 100% | – | N#Cc1c(N)nc2c(C(N)=O)c(Nc3ccccc3)sc2c1-c1ccccc1 [compound 8] | A2AAR antagonist functional activity (in words) [3]: No A2AAR specific activity; also recorded: does not have any functional activity
8 | – | 57% | 0.13 fold | 6.41 | 86% | modest | Cc1ccc(N2C(=O)c3cccc(N)c3C2=O)cc1 [compound 21] | –
9 | – | – | – | – | – | modest affinity | CC(=O)Oc1cccc(-c2nc(C(N)=O)c(N)o2)c1 [compound 46] | LE (experimental ligand efficiency) [5]: 0.32 kcal/mol per heavy atom
10 | 6.70 | 100% | 0.75 fold | 6.82 | 100% | sub-µM affinity | Cn1c(=O)cc2c3c(c(N)ccc31)C(=O)c1ccccc1-2 [compound 35] | –
11 | – | – | – | – | – | low-µM affinity | Nc1c(Sc2ccccc2)cc(Sc2ccccc2)c2c1C(=O)c1ccccc1C2=O [compound 38] | –
12 | – | – | – | – | – | low-µM affinity | Nc1cccc2c1C(=O)c1ccccc1C2=O [compound 28] | –
13 | – | – | – | – | – | modest affinity | Nc1c(C(=O)c2ccccc2)oc2ccc(Br)cc12 [compound 16] | LE (experimental ligand efficiency) [5]: 0.38 kcal/mol per heavy atom
14 | – | – | – | – | – | – | Nc1ccc(-c2nc3c(N)cccc3[nH]2)cc1 [compound 57] | LE (experimental ligand efficiency) [5]: 0.32 kcal/mol per heavy atom
15 | < 5.00 | – | – | 5.95 | 28% | – | CN1CCc2nc3sc(C(=O)Nc4ccc(Cl)cc4)c(N)c3cc2C1 [compound 10] | binding to the HEK293 expressed A2AAR protein (in words) ([2]; HEK293 membranes): did not show any substantial binding
16 | 7.22 | 54% | 2.24 fold | 6.85 | 25% | – | Nc1c(C(=O)Nc2nccs2)sc2nc3c(cc12)C(=O)CCC3 [compound 14] | –
17 | 6.31 | 41% | 2.94 fold | 5.84 | 41% | – | COc1ccc(Cl)cc1Nc1nc(N)nc(-c2oc3ccccc3c2C)n1 [compound 9] | pKi [5]: 7.52; displacement of the hot ligand ([5]; Sf9 membranes, at 2 µM): up to 80%; A2AAR antagonist functional activity (in words) [3]: one of the highest among the tested ligands; concentration with visible sedimentation of the compound [6]: above 10 µM
18 | – | – | – | – | – | – | CN1CCc2sc3nc(C(=O)Nc4ccc(F)cc4)c(N)cc3c2C1 [compound 7] | pKi [5]: 5.72
19 | 6.25 | 73% | 0.87 fold | 6.32 | 27% | – | N#Cc1c(N)nc2c(oc3ccccc32)c1-c1ccccc1 [compound 15] | –

Row | SMILES | pKi [2] | Max Displacement at A2AAR-HEK membranes [2] | A2A / A1 selectivity [2] | pKi [4] | inhibition at 10 µM [4] | A2AAR affinity (in words) ([5]; Sf9 membranes) | also measured
20 | COc1ccc(N)c2c1C(=O)c1ccccc1C2=O [compound 26] | 7.00 | 100% | 2.74 fold | 6.59 | 100% | sub-µM affinity | –
